{"source": "PubChem BioAssay AID2060612", "about": "(Molecular Pharmacology Branch, DTP, NCI, 2025);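 further: spheroids exposed to compounds for 7 days before readout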;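 on viability, T/C: 100% = DMSO vehicle wells with luminescence normalized to vehicle control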", "tested_on": "565232-114-T-J1-PDC complex spheroid viability", "test": "Anticancer human tumor 565232-114-T-J1-PDC patient-derived bladder carcinoma cell line growth inhibition [CLK]", "conditions": "for IC50: curve of first compound; for viability, T/C: stronger effect = lower value", "outline": "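Patient-derived tumor cells grown as complex spheroids with HUVEC endothelial cells and mesenchymal stem cells, treated with drug combinations. Concentrations descend in half-log steps from near clinical Cmax, or from 10 microM if Cmax unknown.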"}
{"smiles": "O=C(c1cc(Cc2n[nH]c(=O)c3ccccc23)ccc1F)N1CCN(C(=O)C2CC2)CC1", "note": "+ CN1CCN(c2cc(C(=O)Nc3cc4cc(-c5cnn(C)c5)ccc4cn3)ccn2)CC1", "values": [{"measurement": "IC50", "setting": "second compound 0.0316 µM", "value": "> 10000", "unit": "nM"}, {"measurement": "IC50", "setting": "second compound 0.1 µM", "value": "> 10000", "unit": "nM"}, {"measurement": "IC50", "setting": "second compound 0.316 µM", "value": "< 31.6", "unit": "nM"}, {"measurement": "IC50", "setting": "second compound 1 µM", "value": "< 31.6", "unit": "nM"}, {"measurement": "IC50", "setting": "second compound 3.16 µM", "value": "< 31.6", "unit": "nM"}, {"measurement": "IC50", "setting": "second compound 10 µM", "value": "< 31.6", "unit": "nM"}, {"measurement": "viability, T/C", "setting": "second compound 0.0316 µM, first compound 0.0316 µM", "value": 110, "unit": "%"}, {"measurement": "viability, T/C", "setting": "second compound 0.0316 µM, first compound 0.1 µM", "value": 117, "unit": "%"}, {"measurement": "viability, T/C", "setting": "second compound 0.0316 µM, first compound 0.316 µM", "value": 109, "unit": "%"}, {"measurement": "viability, T/C", "setting": "second compound 0.0316 µM, first compound 1 µM", "value": 94.4, "unit": "%"}, {"measurement": "viability, T/C", "setting": "second compound 0.0316 µM, first compound 3.16 µM", "value": 128, "unit": "%"}, {"measurement": "viability, T/C", "setting": "second compound 0.0316 µM, first compound 10 µM", "value": 130, "unit": "%"}, {"measurement": "viability, T/C", "setting": "second compound 0.1 µM, first compound 0.0316 µM", "value": 122, "unit": "%"}, {"measurement": "viability, T/C", "setting": "second compound 0.1 µM, first compound 0.1 µM", "value": 106, "unit": "%"}, {"measurement": "viability, T/C", "setting": "second compound 0.1 µM, first compound 0.316 µM", "value": 139, "unit": "%"}, {"measurement": "viability, T/C", "setting": "second compound 0.1 µM, first compound 1 µM", "value": 115, "unit": "%"}, {"measurement": "viability, T/C", "setting": "second compound 0.1 µM, first compound 3.16 µM", "value": 148, "unit": "%"}, {"measurement": "viability, T/C", "setting": "second compound 0.1 µM, first compound 10 µM", "value": 108, "unit": "%"}, {"measurement": "viability, T/C", "setting": "second compound 0.316 µM, first compound 0.0316 µM", "value": 23.3, "unit": "%"}, {"measurement": "viability, T/C", "setting": "second compound 0.316 µM, first compound 0.1 µM", "value": 22.6, "unit": "%"}, {"measurement": "viability, T/C", "setting": "second compound 0.316 µM, first compound 0.316 µM", "value": 24.8, "unit": "%"}, {"measurement": "viability, T/C", "setting": "second compound 0.316 µM, first compound 1 µM", "value": 20.1, "unit": "%"}, {"measurement": "viability, T/C", "setting": "second compound 0.316 µM, first compound 3.16 µM", "value": 19.8, "unit": "%"}, {"measurement": "viability, T/C", "setting": "second compound 0.316 µM, first compound 10 µM", "value": 16, "unit": "%"}, {"measurement": "viability, T/C", "setting": "second compound 1 µM, first compound 0.0316 µM", "value": 0.19, "unit": "%"}, {"measurement": "viability, T/C", "setting": "second compound 1 µM, first compound 0.1 µM", "value": 1.21, "unit": "%"}, {"measurement": "viability, T/C", "setting": "second compound 1 µM, first compound 0.316 µM", "value": 0.25, "unit": "%"}, {"measurement": "viability, T/C", "setting": "second compound 1 µM, first compound 1 µM", "value": 0.17, "unit": "%"}, {"measurement": "viability, T/C", "setting": "second compound 1 µM, first compound 3.16 µM", "value": 0.18, "unit": "%"}, {"measurement": "viability, T/C", "setting": "second compound 1 µM, first compound 10 µM", "value": 0.19, "unit": "%"}, {"measurement": "viability, T/C", "setting": "second compound 3.16 µM, first compound 0.0316 µM", "value": 0.15, "unit": "%"}, {"measurement": "viability, T/C", "setting": "second compound 3.16 µM, first compound 0.1 µM", "value": 0.29, "unit": "%"}, {"measurement": "viability, T/C", "setting": "second compound 3.16 µM, first compound 0.316 µM", "value": 1.69, "unit": "%"}, {"measurement": "viability, T/C", "setting": "second compound 3.16 µM, first compound 1 µM", "value": 0.26, "unit": "%"}, {"measurement": "viability, T/C", "setting": "second compound 3.16 µM, first compound 3.16 µM", "value": 2.21, "unit": "%"}, {"measurement": "viability, T/C", "setting": "second compound 3.16 µM, first compound 10 µM", "value": 4.24, "unit": "%"}, {"measurement": "viability, T/C", "setting": "second compound 10 µM, first compound 0.0316 µM", "value": 1.42, "unit": "%"}, {"measurement": "viability, T/C", "setting": "second compound 10 µM, first compound 0.1 µM", "value": 0.19, "unit": "%"}, {"measurement": "viability, T/C", "setting": "second compound 10 µM, first compound 0.316 µM", "value": 3.03, "unit": "%"}, {"measurement": "viability, T/C", "setting": "second compound 10 µM, first compound 1 µM", "value": 0.19, "unit": "%"}, {"measurement": "viability, T/C", "setting": "second compound 10 µM, first compound 3.16 µM", "value": 0.25, "unit": "%"}, {"measurement": "viability, T/C", "setting": "second compound 10 µM, first compound 10 µM", "value": 0.28, "unit": "%"}]}
